Measurements taken from patent publication US7528123B1, “Estrogenic estra-1,3,5(10)-trienes with differential effects on the alpha and beta estrogen receptors, having a linear hydrocarbon chain of from 5-9 carbon atoms in position 11” (N.V. Organon, priority 1998, dated 2009).

What was measured:
[1] = molecular target: T1, human estrogen receptor β (Homo sapiens, UniProt Q92731); assay: CHO-ERβ bioassay: luciferase transactivation, estrogenic and anti-estrogenic activity; type: cell-based; conditions: agonist or antagonist in recombinant CHO cells with hERβ, rat oxytocin promoter, luciferase reporter; standard Org 2317 (estradiol)
T1 construct: expressed in transfected cells; host or cells: CHO cells (CHO-ERβ RO LUC), stably co-transfected with rat oxytocin promoter-luciferase reporter
T1 sequence (Q92731 whole entry): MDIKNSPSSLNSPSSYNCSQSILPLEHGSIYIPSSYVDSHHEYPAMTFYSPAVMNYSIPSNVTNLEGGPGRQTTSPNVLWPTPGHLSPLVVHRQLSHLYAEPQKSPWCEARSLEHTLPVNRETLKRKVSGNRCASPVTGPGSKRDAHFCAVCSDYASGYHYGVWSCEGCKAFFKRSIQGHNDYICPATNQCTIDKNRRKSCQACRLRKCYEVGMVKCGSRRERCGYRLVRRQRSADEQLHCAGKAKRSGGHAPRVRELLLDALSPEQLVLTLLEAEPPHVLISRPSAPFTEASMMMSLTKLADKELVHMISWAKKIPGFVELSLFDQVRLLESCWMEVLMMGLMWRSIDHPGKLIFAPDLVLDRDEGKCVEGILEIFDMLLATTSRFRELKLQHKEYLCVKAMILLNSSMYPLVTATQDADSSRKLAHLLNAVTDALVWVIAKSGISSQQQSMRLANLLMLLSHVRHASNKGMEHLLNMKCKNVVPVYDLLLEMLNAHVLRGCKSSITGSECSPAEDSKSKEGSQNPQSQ
Method: (§1) Test medium: Intact recombinant CHO cells stably co-transfected with the rat oxytocin promoter and the luciferase reporter gene and either the human estrogen receptor β or the human estrogen receptor α. Both cell lines have been produced within the Department of Biotechnology and Biochemistry (BBC) (N. V. Organon) and are known under the name CHO-ERRO 2B1-1E9 for CHO-ERα and CHO-ERβ RO LUC for CHO-ERβ. The estrogenic activity of compounds is determined in an in vitro bioassay (CHO-ERα) with recombinant Chinese hamster ovary (CHO) cells stably co-transfected with the human estrogen α (hERα), the rat oxytocin promoter (RO) and the luciferase reporter gene (LUC). The estrogenic activity (potency ratio) of a test compound to promote the transactivation of the enzyme luciferase mediated via the estrogen receptor α is compared with the standard estrogen Org 2317 (estradiol 1,3,5 (10)-estratriene-3,17β-diol). The estrogenic activity (potency ratio) of a test compound to promote the transactivation of the enzyme luciferase mediated via the estrogen receptor β is determined in the same fashion but using recombinant Chinese hamster ovary (CHO) cells stably co-transfected with the human estrogen β (hERβ) (bioassay CHO-ERβ). The anti-estrogenic activity of compounds is determined in the same bioassays (CHO-ERα and CHO-ERβ), but now the anti-ERα and anti-ERβ activity (potency ratio) of a test compound to inhibit the transactivation of the enzyme luciferase mediated via ERα or ERβ by Org 2317 (estradiol 1,3,5 (10)-estratriene-3,17β-diol) is measured.

[2] = molecular target: T2, human estrogen receptor α (Homo sapiens, UniProt P03372); assay: CHO-ERα bioassay: luciferase transactivation, estrogenic and anti-estrogenic activity; type: cell-based; conditions: agonist or antagonist in recombinant CHO cells with hERα, rat oxytocin promoter, luciferase reporter; standard Org 2317 (estradiol)
T2 construct: expressed in transfected cells; host or cells: CHO cells (CHO-ERRO 2B1-1E9), stably co-transfected with rat oxytocin promoter-luciferase reporter
T2 sequence (P03372 1-595): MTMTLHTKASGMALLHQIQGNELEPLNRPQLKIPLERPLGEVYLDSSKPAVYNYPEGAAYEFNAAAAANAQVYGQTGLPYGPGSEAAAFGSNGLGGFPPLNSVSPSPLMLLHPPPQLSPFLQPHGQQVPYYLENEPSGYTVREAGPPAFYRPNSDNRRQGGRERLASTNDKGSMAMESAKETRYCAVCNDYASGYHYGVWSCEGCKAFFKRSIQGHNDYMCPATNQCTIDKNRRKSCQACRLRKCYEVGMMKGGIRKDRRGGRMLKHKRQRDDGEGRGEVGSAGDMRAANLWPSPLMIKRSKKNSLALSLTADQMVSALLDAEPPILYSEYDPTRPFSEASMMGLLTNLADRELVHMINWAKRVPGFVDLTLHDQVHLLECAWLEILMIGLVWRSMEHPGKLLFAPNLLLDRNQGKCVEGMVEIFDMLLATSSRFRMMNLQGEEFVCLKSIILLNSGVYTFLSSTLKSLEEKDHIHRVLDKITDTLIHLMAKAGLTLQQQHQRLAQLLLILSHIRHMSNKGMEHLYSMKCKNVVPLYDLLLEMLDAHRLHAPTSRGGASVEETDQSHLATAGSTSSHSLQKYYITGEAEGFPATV
Method: as §1

## C=CC[C@H]1C[C@]2(C)[C@@H](O)CC[C@H]2[C@@H]2CCc3cc(O)ccc3[C@@H]12 [Compound 1]
[1]
  ER-β: agonist
[2]
  ER-α: agonist

## C=CCC[C@H]1C[C@]2(C)[C@@H](O)CC[C@H]2[C@@H]2CCc3cc(O)ccc3[C@@H]12 [Compound 2]
[1]
  ER-β: agonist
[2]
  ER-α: agonist

## C=CCCC[C@H]1C[C@]2(C)[C@@H](O)CC[C@H]2[C@@H]2CCc3cc(O)ccc3[C@@H]12 [Compound 3]
[1]
  ER-β: antagonist
[2]
  ER-α: agonist

## C#CCC[C@H]1C[C@]2(C)[C@@H](O)CC[C@H]2[C@@H]2CCc3cc(O)ccc3[C@@H]12 [Compound 4]
[1]
  ER-β: agonist
[2]
  ER-α: agonist

## CC#CCC[C@H]1C[C@]2(C)[C@@H](O)CC[C@H]2[C@@H]2CCc3cc(O)ccc3C12 (stereo partly shown) [Compound 5]
[1]
  ER-β: antagonist
[2]
  ER-α: agonist

## C#CCCC[C@H]1C[C@]2(C)[C@@H](O)CC[C@H]2[C@@H]2CCc3cc(O)ccc3[C@@H]12 [Compound 6]
[1]
  ER-β: antagonist
[2]
  ER-α: agonist

## C[C@]12C[C@H](CC=C3CC3)[C@@H]3c4ccc(O)cc4CC[C@H]3[C@@H]1CC[C@@H]2O [Compound 7]
[1]
  ER-β: agonist
[2]
  ER-α: agonist

## C[C@]12C[C@H](CCC=C3CC3)[C@@H]3c4ccc(O)cc4CC[C@H]3[C@@H]1CC[C@@H]2O [Compound 8]
[1]
  ER-β: antagonist
[2]
  ER-α: agonist

## CCC[C@H]1C[C@]2(C)[C@@H](O)CC[C@H]2[C@@H]2CCc3cc(O)ccc3[C@@H]12 [Compound 9]
[1]
  ER-β: agonist
[2]
  ER-α: agonist

## CCCC[C@H]1C[C@]2(C)[C@@H](O)CC[C@H]2[C@@H]2CCc3cc(O)ccc3[C@@H]12 [Compound 10]
[1]
  ER-β: agonist
[2]
  ER-α: agonist

## CCCCC[C@H]1C[C@]2(C)[C@@H](O)CC[C@H]2[C@@H]2CCc3cc(O)ccc3[C@@H]12 [Compound 11]
[1]
  ER-β: antagonist
[2]
  ER-α: agonist
